Read-outs that look alike come from different tables or passages of the source.
Experiments:
[1] = test system: male C57BL/6 J mice; experiment: Head-twitch response (HTR), magnetometer coil recording; assay type: in vivo; details: for HTR Counts (Mean ± SEM): 30 min; for ED50: Mus musculus, 0.5 h, HTR, 30 min recording, male C57BL/6 J mice; for maximum number of head twitches (mean ± SEM): during the 30-min assessment period
Description: Male C57BL/6 J mice (Jackson Laboratory, Bar Harbor, ME) were housed in a vivarium at the University of California San Diego (UCSD), which is an AAALAC-approved animal facility that complies with Federal and State requirements for care and treatment of laboratory animals. The mice (6–8 weeks old) were housed in a climate-controlled room with a reversed light-cycle (lights on at 19:00 h, off at 07:00 h) up to 4 animals per cage. Food and water were provided ad libitum, except during behavioral testing which occurred between 10:00 and 18:00 h. All experiments were conducted according to NIH guidelines and were approved by the UCSD animal care committee.
Head movement was recorded using a head-mounted magnet and a magnetometer coil (Halberstadt and Geyer [2013]). Briefly, mice were anesthetized, a small incision was made in the scalp, and a neodymium magnet was attached to the dorsal surface of the cranium using dental cement. Following a 1–2-week recovery period, behavioral experiments were conducted in a well-lit room with at least 7 days between sessions to avoid any carryover effects. Mice were treated with vehicle or test compound and then placed in a glass cylinder surrounded by a magnetometer coil and activity was recorded for 30 min. All test substances were administered IP dissolved in saline using an injection volume of 5 mL/kg. Coil voltage was filtered (5–10 kHz lowpass), digitized (20 kHz sampling rate), and saved to disk using a Powerlab/8SP with LabChart v 7.3.2 (ADInstruments, Colorado Springs, CO). To detect head twitches, events in the recordings were converted into scalograms using a wavelet transform and then the images were classified using a multistage approach combining the deep convolutional neural network (CNN) ResNet-50 with a support vector machine (SVM) algorithm (Halberstadt [2020]). HTR counts were analyzed using a one-way Welch analysis of variance (ANOVA). Post hoc pairwise comparisons were performed using Dunnett’s test. […] Median effective doses (ED50 values) and 95% confidence intervals were calculated using nonlinear regression (Prism ver. 9.0.2, GraphPad Software Inc, San Diego, CA, USA).

[2] = test system: rats; set-up: method as in Eshleman et al. 2014; Fantegrossi et al. 2005; details: rats trained to discriminate LSD or DMT; ref Eshleman et al. 2014; Fantegrossi et al. 2005; cited from earlier work
[3] = target: T1, human 5-HT2A receptor (Homo sapiens, UniProt P28223); set-up: expressed in transfected cells; host or cells: HEK 293 (transient), membrane preparations; details: read-out: 5-HT2A Ki, [3H]ketanserin, cited from earlier work
[4] = target: T1, human 5-HT2A receptor; set-up: expressed in transfected cells; host or cells: HEK 293 (transient); method as in Luethi et al. 2018; details: 5-HT2A calcium flux assays; ref Luethi et al. 2018; cited from earlier work
[5] = test system: humans; details: p.o.; ref Shulgin and Shulgin 1991; Trachsel et al. 2013; cited from earlier work
[6] = test system: rats; set-up: method as in Khorana et al. 2004; Li et al. 2010, 2008; details: ref Khorana et al. 2004, Li et al. 2010, 2008; cited from earlier work
[7] = test system: monkeys; set-up: method as in Khorana et al. 2004; Li et al. 2010, 2008; details: ref Khorana et al. 2004, Li et al. 2010, 2008; cited from earlier work
[8] = test system: mice; details: ref Fantegrossi et al. 2005, cited from earlier work
[9] = IP, read-out: ED50 µmol/kg (95% CI)
[10] = IP, read-out: ED50 mg/kg (95% CI)

T1 sequence (P28223 whole entry): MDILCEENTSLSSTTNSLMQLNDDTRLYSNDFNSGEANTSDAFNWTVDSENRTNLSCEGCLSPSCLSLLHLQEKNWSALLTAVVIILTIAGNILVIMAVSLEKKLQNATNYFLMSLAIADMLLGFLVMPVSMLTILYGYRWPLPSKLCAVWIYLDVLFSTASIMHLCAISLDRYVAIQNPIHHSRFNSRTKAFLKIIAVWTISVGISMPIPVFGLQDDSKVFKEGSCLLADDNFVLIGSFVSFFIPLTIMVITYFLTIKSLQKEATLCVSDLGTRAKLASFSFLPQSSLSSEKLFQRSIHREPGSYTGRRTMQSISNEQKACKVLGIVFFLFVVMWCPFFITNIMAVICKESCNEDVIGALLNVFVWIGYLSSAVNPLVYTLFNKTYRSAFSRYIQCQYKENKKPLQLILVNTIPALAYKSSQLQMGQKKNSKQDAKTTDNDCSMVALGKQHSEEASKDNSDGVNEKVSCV

## CCSc1cc(OC)c(CCN)cc1OC.Cl [Compound 2C-T-2, 2,5-dimethoxy-4-ethylthiophenethylamine hydrochloride]
[1]; 0.1 mg/kg IP
  HTR Counts (Mean ± SEM): 12.2 ± 1.9
[1]; 0.3 mg/kg IP
  HTR Counts (Mean ± SEM): 28.4 ± 4.7
[1]; 1 mg/kg IP
  HTR Counts (Mean ± SEM): 65.2 ± 5.9
[1]; 3 mg/kg IP
  HTR Counts (Mean ± SEM): 36.8 ± 11.5
[1]; [9]
  ED50: 1.44 µmol/kg
[1]; [10]
  ED50: 0.4 mg/kg
[1]
  maximum number of head twitches (mean ± SEM): 65.2 ± 5.9
[2]
  substitution for training drug (in words): partial generalization
[3]; ref Rickli et al. (2015)
  Ki: 9 nM

## COc1cccc(CSc2cc(OC)c(CCN)cc2OC)c1.Cl [Compound 2C-T-33, 2,5-dimethoxy-4-(3-methoxybenzylthio)phenethylamine hydrochloride]
[1]; 0.3 mg/kg IP
  HTR Counts (Mean ± SEM): 8.6 ± 2.2
[1]; 1 mg/kg IP
  HTR Counts (Mean ± SEM): 5.0 ± 2.8
[1]; 3 mg/kg IP
  HTR Counts (Mean ± SEM): 9.6 ± 1.7
[1]; 10 mg/kg IP
  HTR Counts (Mean ± SEM): 7.8 ± 0.8
[1]; versus vehicle/baseline, IP
  effect on HTR counts (in words): did not produce a significant increase in HTR counts
[4]
  5-HT2A agonist efficacy (in words): low efficacy partial agonists
[3]; ref Luethi et al. (2018)
  Ki: 1.7 nM

## CCCSc1cc(OC)c(CCN)cc1OC.Cl [Compound 2C-T-7, 2,5-dimethoxy-4-n-propylthiophenethylamine hydrochloride]
[1]; 0.1 mg/kg IP
  HTR Counts (Mean ± SEM): 11.8 ± 1.3
[1]; 0.3 mg/kg IP
  HTR Counts (Mean ± SEM): 18.4 ± 3.5
[1]; 1 mg/kg IP
  HTR Counts (Mean ± SEM): 70.2 ± 10.6
[1]; 3 mg/kg IP
  HTR Counts (Mean ± SEM): 58.6 ± 9.7
[1]; [9]
  ED50: 2.12 µmol/kg
[1]; [10]
  ED50: 0.62 mg/kg
[1]
  maximum number of head twitches (mean ± SEM): 70.2 ± 10.6
[5]
  Human active dose range: 10 to 30 mg
[2]
  substitution for training drug (in words): partial generalization
[6]
  effects in DOM-trained animals (in words): hallucinogen-like effects
[7]
  effects in DOM-trained animals (in words): hallucinogen-like effects
[8]; mice pretreated with M100907
  HTR after pretreatment with 5-HT2A antagonist M100907 (in words): blocked
[8]; mice
  induction of HTR (in words): induce the head-twitch response
[3]; ref Luethi et al. (2018)
  Ki: 5.3 nM

Source: article PMC9816194, “Use of the head-twitch response to investigate the structure–activity relationships of 4-thio-substituted 2,5-dimethoxyphenylalkylamines” (Psychopharmacology, 2022)
